Assay results published in US20250206763A1, “ENPP1 INHIBITOR” (SHANGHAI QILU PHARMACEUTICAL RESEARCH AND DEVELOPMENT …, priority 2022, published 2025).

Key:
[1] = system: MDA-MB-231 CM-THP1 (THP1-Dual Cells NF-κB-SEAP and IRF-Lucia luciferase Reporter Monocytes); assay: Cell Activity Test 2: MDA-MB-231 cells treated with compound and cGAMP, supernatant transferred to THP1-Dual IRF-Lucia luciferase reporter cells; type: cell-based; conditions: 30 minutes pretreatment, cGAMP 24 hours, supernatant on THP1-Dual reporter cells 24 hours, QUANTI-Luc
Excerpt: THP1-Dual Cells NF-κB-SEAP and IRF-Lucia luciferase Reporter Monocytes cells (Invivogen, thpd-nfis), MDA-MB-231 cells (ATCC, CRM-HTB-26), RPMI-1640 medium (Gibco, 11875-093), FBS (Gibco, 10099), penicillin-streptomycin (Gibco, 15070063), HEPES (ThermoFisher, 15630080), L-glutamine (ThermoFisher, 25030081), Normocin-Antimicrobial Reagent (InVivoGen, ant-nr-1), Zeocin (Invivogen, ant-zn-1), Blasticidin (Invivogen, ant-bl-1), Mammalian (non-canonical) CDN, cyclic [G(2′,5′)pA(3′,5′)p] (referred to as cGAMP hereinafter, Invivogen, tlrl-nacga23-1), QUANTI-Luc (InvivoGen, rep-qlc2), Multimode Plate Reader (PerkinElmer, EnVision 2105 Alpha 680 nm Laser), and conventional cell culture consumables (NEST). […]
An appropriate amount of MDA-MB-231 cells in logarithmic growth phase was taken and centrifuged at 300×g for 5 minutes, and the supernatant was removed. The cells were re-suspended with MDA-MB-231 cell growth medium and counted, and the cell density was adjusted to 6×10^4 cells/mL. […]
After 24 hours, the resulting was centrifuged at 300×g for 5 minutes, 10 μL of cell supernatant was transferred to a new 384-well plate with a white opaque bottom, followed by the addition of 25 μL of QUANTI-Luc reaction solution to each well. They were shaken well for 1 minute away from light and the plate was read immediately.

[2] = system: MDA-MB-231 cells; assay: Cell Activity Test 1: pNP-AMP hydrolysis on MDA-MB-231 cells, absorbance at 405; type: cell-based; conditions: Homo sapiens, 1 hour pre-incubation, 0.25 mM pNP-AMP, 5 hours of reaction, read-out: MDA-MB-231 cell biochemical IC50
Experimental: MDA-MB-231 cells were digested and suspended, the cell density was adjusted to 4.5×10^5 cells per milliliter, and the cells were seeded in 384 microtiter plates at 50 microliters per well. The cells were incubated in an incubator at 37° C. with […] for 24 h. After 24 h, the cell plates were taken out, the cell culture medium was pipetted and washed once with 50 μL of PBS. Then 20 μL of 1640 medium free of phenol red and serum was added per well, and 2× of compound was added with Tecan, with 1:3 dilution. The compounds were pre-incubated for 1 hour. Afterwards, the reaction was initiated by adding a substrate mixture (50 μL system, 0.5 mM pNP-AMP dissolved in 1640 medium free of phenol red and serum) at a final substrate concentration of 0.25 mM. Absorbance values were read at 405 nm in a microplate reader after 5 hours of reaction, 4-Parameter Logistic Curve model was applied to calculate the […] of the compounds, taking positive compounds as 100% inhibition and DMSO as 0% inhibition.

[3] = target: T1, human ENPP1 (Homo sapiens, UniProt P22413); assay: In vitro enzyme activity assay: human ENPP1 enzymatic assay (cGAMP), AMP-Glo; type: biochemical; conditions: substrate cGAMP, AMP-Glo detection
T1 construct: purchased Biovendor AP-18-081; host or cells: HEK293
T1 sequence (P22413 1-925): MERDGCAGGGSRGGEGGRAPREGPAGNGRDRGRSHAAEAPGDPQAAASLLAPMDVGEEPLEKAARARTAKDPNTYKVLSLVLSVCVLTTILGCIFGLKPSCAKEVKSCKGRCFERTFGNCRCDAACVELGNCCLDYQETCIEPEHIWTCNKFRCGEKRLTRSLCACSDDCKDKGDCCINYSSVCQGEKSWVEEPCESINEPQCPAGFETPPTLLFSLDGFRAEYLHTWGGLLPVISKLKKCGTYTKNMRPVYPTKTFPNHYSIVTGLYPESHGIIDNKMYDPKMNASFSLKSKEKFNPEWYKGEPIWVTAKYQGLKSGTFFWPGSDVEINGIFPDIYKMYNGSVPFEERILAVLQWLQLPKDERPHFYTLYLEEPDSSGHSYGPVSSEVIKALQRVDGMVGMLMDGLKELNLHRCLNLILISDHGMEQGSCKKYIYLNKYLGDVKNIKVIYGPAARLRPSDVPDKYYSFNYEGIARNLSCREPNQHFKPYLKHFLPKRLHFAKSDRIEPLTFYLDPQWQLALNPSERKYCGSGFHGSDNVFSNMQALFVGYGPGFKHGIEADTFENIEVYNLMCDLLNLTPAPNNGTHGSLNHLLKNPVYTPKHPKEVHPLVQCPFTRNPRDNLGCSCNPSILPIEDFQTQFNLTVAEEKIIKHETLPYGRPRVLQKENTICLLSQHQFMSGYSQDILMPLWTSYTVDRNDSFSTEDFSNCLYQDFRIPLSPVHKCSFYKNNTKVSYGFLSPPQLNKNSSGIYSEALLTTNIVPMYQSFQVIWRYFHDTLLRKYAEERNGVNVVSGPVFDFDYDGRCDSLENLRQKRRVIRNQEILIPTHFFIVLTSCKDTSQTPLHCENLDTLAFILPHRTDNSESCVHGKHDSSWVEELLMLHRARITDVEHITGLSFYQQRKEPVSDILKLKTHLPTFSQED
Experimental: AMP-Glo Assay Kit (PROMEGA, V5012), ENPP-1-IN-1 (MCE, HY-129490), white opaque 384-well plate (Perkin Elmer, 6008289), Mammalian (non-canonical) CDN, cyclic[g(2′,5′)pA(3′,5′)p](referred to as cGAMP hereinafter, Invivogen, tlrl-nacga23-5), ENPP1 Protein Human HEK293 (Biovendor, AP-18-081).
• 1) Preparing 1× reaction buffer (Tris buffer), 1× enzyme buffer, and 1× substrate buffer; • 2) diluting the compounds using Echo550 and supplementing with DMSO; • 3) pre-loading 2.5 μL of enzyme solution on a reaction plate (adding 2.5 μL of buffer instead as negative control) and incubating it at room temperature; • 4) adding 2.5 μL of substrate solution to the system and incubating it at room temperature; • 5) adding 5 μL of AMP-Glo solution that has been allowed to cooled down to room temperature, centrifuging and reacting at room temperature, • 6) adding 10 μL of AMP Detection solution at room temperature, centrifuging and reacting at room temperature; and • 7) reading the plate using EnVision.

Structure (SMILES)	EC50 [1] [nM]	IC50 [2] [nM]	IC50 [3] [nM]
NS(=O)(=O)c1ccc(Cn2c(=O)[nH]c3cnc4c5c(ccc4c32)OCO5)cc1 [Compound 36]	–	–	< 10
O=c1[nH]c2cnc3c4c(ccc3c2n1Cc1ccc(B(O)O)cc1)OCO4 [Compound 48]	–	–	< 10
C[S@@](=N)(=O)c1ccc(Cn2c(=O)[nH]c3cnc4c5c(ccc4c32)OCO5)cc1 (single isomer, unassigned) [Compound 43-P1]	–	–	10 to 50

Now from value to compound:

EC50 [1] [nM]	IC50 [2] [nM]	IC50 [3] [nM]	Structure (SMILES)
14.6	9.78	–	COc1ccc2c(ncc3[nH]c(=O)n(Cc4ccc(P(=O)(O)O)c(F)c4)c32)n1 [Control Compound, reference compound]
3.5	1.12	< 10	O=c1[nH]c2cnc3c4c(ccc3c2n1Cc1ccc(P(=O)(O)O)c(F)c1)OCO4 [Compound 1, (2-fluoro-4-((7-oxo-6,7-dihydro-8H-[1,3]dioxolo[4,5-h]imidazo[4,5-c]quinolin-8-yl)methyl)phenyl)phosphonic add]
–	–	< 10	NS(=O)(=O)c1ccc(Cn2c(=O)[nH]c3cnc4c5c(ccc4c32)OCO5)cc1F [Compound 37]
–	–	< 10	CN(C)CCn1c(=O)n(Cc2c(F)cc(S(N)(=O)=O)cc2F)c2c3ccc4c(c3ncc21)OCO4 [Compound 53]
